Where a SMILES comes first, the peptide text is derived from it. Bridges are numbered along the chain shown (N, C = ends). [ ]: non-standard residue; d: D form. 2Nal = N[C@@H](Cc1ccc2ccccc2c1)C(=O)O; Cit = NC(=O)NCCC[C@H](N)C(=O)O
Tests used:
[1] = test system: MT4; assay: Compound was tested for reduction of the viability of mock infected MT-4 cell in test-I; format: functional; conditions: Homo sapiens
[2] = Ratio of cytotoxic concentration (CC50) in test-I to that of EC50 of compound; format: functional, Homo sapiens
[3] = test system: MT4; assay: Compound was tested for reduction of the viability of mock infected MT-4 cell in test-II; format: functional; conditions: Homo sapiens
[4] = Ratio of cytotoxic concentration (CC50) in test-II to that of EC50 of compound; format: functional, Homo sapiens

Compound `CC(N)C(=O)N[C@@H](CCCN=C(N)N)C(=O)N[C@@H](Cc1ccc2ccccc2c1)C(=O)N[C@H]1CSSC[C@@H](C(=O)N[C@@H](CCCN=C(N)N)C(=O)O)NC(=O)[C@H](CCCNC(N)=O)NC(=O)[C@H](CCCN=C(N)N)NC(=O)[C@H](Cc2ccc(O)cc2)NC(=O)[C@@H]2CCCN2C(=O)[C@@H](CCCCN)NC(=O)[C@H](CCCCN)NC(=O)[C@H](CCCN=C(N)N)NC(=O)[C@H](Cc2ccc(O)cc2)NC1=O` (stereo not given in full) has a CC50 [1] of over 40 µM and a Ratio [2] of over 750.
In the case of `NCCCC[C@@H]1NC(=O)[C@H](CCCN=C(N)N)NC(=O)[C@H](Cc2ccc(O)cc2)NC(=O)[C@@H](NC(=O)[C@H](Cc2c[nH]c3ccccc23)NC(=O)[C@H](CCCN=C(N)N)NC(=O)[C@@H](N)CCCN=C(N)N)CSSC[C@@H](C(=O)N[C@@H](CCCN=C(N)N)C(=O)O)NC(=O)[C@H](CCCNC(N)=O)NC(=O)[C@H](CCCN=C(N)N)NC(=O)[C@H](Cc2ccc(O)cc2)NC(=O)[C@@H]2CCCN2C(=O)[C@@H](CCCCN)NC1=O`, the CC50 [1] is reported as over 1 µM, the CC50 [3] is reported as 190 µM and the Ratio [2] is reported as >>120. For the same compound, the Ratio [4] was 23000.
Work on `NCCCC[C@@H]1NC(=O)[C@H](CCCN=C(N)N)NC(=O)[C@H](Cc2ccc(O)cc2)NC(=O)[C@@H](NC(=O)[C@H](Cc2ccc3ccccc3c2)NC(=O)[C@H](CCCN=C(N)N)NC(=O)[C@@H](N)CCCN=C(N)N)CSSC[C@@H](C(=O)N[C@@H](CCCN=C(N)N)C(=O)O)NC(=O)[C@H](CCCNC(N)=O)NC(=O)[C@H](CCCNC(N)=O)NC(=O)[C@H](Cc2ccc(O)cc2)NC(=O)[C@@H]2CCCN2C(=O)[C@@H](CCCCN)NC1=O` yielded a CC50 [1] of over 80 µM, a CC50 [3] of 310 µM and a Ratio [2] of over 5300. It also gave a Ratio [4] of 20000.
Compound `C[C@@H]1NC(=O)[C@H](Cc2ccc(O)cc2)NC(=O)[C@@H]2CCCN2C(=O)[C@@H](CCCCN)NC(=O)[C@H](CCCCN)NC(=O)[C@H](CCCN=C(N)N)NC(=O)[C@H](Cc2ccc(O)cc2)NC(=O)[C@@H](NC(=O)[C@H](Cc2ccc3ccccc3c2)NC(=O)[C@H](CCCN=C(N)N)NC(=O)[C@@H](N)CCCN=C(N)N)CSSC[C@@H](C(=O)N[C@@H](CCCN=C(N)N)C(=O)O)NC(=O)[C@H](CCCNC(N)=O)NC1=O` has a CC50 [1] of over 80 µM and a Ratio [2] of over 4800.
In the case of `C[C@@H]1NC(=O)[C@@H]2CCCN2C(=O)[C@@H](CCCCN)NC(=O)[C@H](CCCCN)NC(=O)[C@H](CCCN=C(N)N)NC(=O)[C@H](Cc2ccc(O)cc2)NC(=O)[C@@H](NC(=O)[C@H](Cc2ccc3ccccc3c2)NC(=O)[C@H](CCCN=C(N)N)NC(=O)[C@@H](N)CCCN=C(N)N)CSSC[C@@H](C(=O)N[C@@H](CCCN=C(N)N)C(=O)O)NC(=O)[C@H](CCCNC(N)=O)NC(=O)[C@H](CCCN=C(N)N)NC1=O`, the CC50 [1] is reported as over 80 µM and the Ratio [2] is reported as over 4500.
`C[C@@H]1NC(=O)[C@@H](CCCCN)NC(=O)[C@H](CCCCN)NC(=O)[C@H](CCCN=C(N)N)NC(=O)[C@H](Cc2ccc(O)cc2)NC(=O)[C@@H](NC(=O)[C@H](Cc2ccc3ccccc3c2)NC(=O)[C@H](CCCN=C(N)N)NC(=O)[C@@H](N)CCCN=C(N)N)CSSC[C@@H](C(=O)N[C@@H](CCCN=C(N)N)C(=O)O)NC(=O)[C@H](CCCNC(N)=O)NC(=O)[C@H](CCCN=C(N)N)NC(=O)[C@H](Cc2ccc(O)cc2)NC1=O` (H-RR[2Nal]CYRK[dK]AYR[Cit]CR-OH; disulfide 4-13) showed a CC50 [1] of over 80 µM and a Ratio [2] of over 4700.
With `C[C@@H]1NC(=O)[C@H](CCCN=C(N)N)NC(=O)[C@H](Cc2ccc(O)cc2)NC(=O)[C@@H]2CCCN2C(=O)[C@@H](CCCCN)NC(=O)[C@H](CCCCN)NC(=O)[C@H](CCCN=C(N)N)NC(=O)[C@H](Cc2ccc(O)cc2)NC(=O)[C@@H](NC(=O)[C@H](Cc2ccc3ccccc3c2)NC(=O)[C@H](CCCN=C(N)N)NC(=O)[C@@H](N)CCCN=C(N)N)CSSC[C@@H](C(=O)N[C@@H](CCCN=C(N)N)C(=O)O)NC1=O` the CC50 [1] was 55 µM and the Ratio [2] was 3300.
`C[C@@H]1NC(=O)[C@H](CCCN=C(N)N)NC(=O)[C@H](Cc2ccc(O)cc2)NC(=O)[C@@H](NC(=O)[C@H](Cc2ccc3ccccc3c2)NC(=O)[C@H](CCCN=C(N)N)NC(=O)[C@@H](N)CCCN=C(N)N)CSSC[C@@H](C(=O)N[C@@H](CCCN=C(N)N)C(=O)O)NC(=O)[C@H](CCCNC(N)=O)NC(=O)[C@H](CCCN=C(N)N)NC(=O)[C@H](Cc2ccc(O)cc2)NC(=O)[C@@H]2CCCN2C(=O)[C@@H](CCCCN)NC1=O` showed a CC50 [1] of over 80 µM and a Ratio [2] of over 1800.
Work on `C[C@H]1NC(=O)[C@H](CCCCN)NC(=O)[C@H](CCCN=C(N)N)NC(=O)[C@H](Cc2ccc(O)cc2)NC(=O)[C@@H](NC(=O)[C@H](Cc2ccc3ccccc3c2)NC(=O)[C@H](CCCN=C(N)N)NC(=O)[C@@H](N)CCCN=C(N)N)CSSC[C@@H](C(=O)N[C@@H](CCCN=C(N)N)C(=O)O)NC(=O)[C@H](CCCNC(N)=O)NC(=O)[C@H](CCCN=C(N)N)NC(=O)[C@H](Cc2ccc(O)cc2)NC(=O)[C@@H]2CCCN2C1=O` yielded a CC50 [1] of over 80 µM and a Ratio [2] of over 5200.
Work on `C[C@@H]1NC(=O)[C@@H](NC(=O)[C@H](Cc2ccc3ccccc3c2)NC(=O)[C@H](CCCN=C(N)N)NC(=O)[C@@H](N)CCCN=C(N)N)CSSC[C@@H](C(=O)N[C@@H](CCCN=C(N)N)C(=O)O)NC(=O)[C@H](CCCNC(N)=O)NC(=O)[C@H](CCCN=C(N)N)NC(=O)[C@H](Cc2ccc(O)cc2)NC(=O)[C@@H]2CCCN2C(=O)[C@@H](CCCCN)NC(=O)[C@H](CCCCN)NC(=O)[C@H](CCCN=C(N)N)NC1=O` yielded a CC50 [1] of over 80 µM and a Ratio [2] of over 230.
For `NCCCC[C@@H]1NC(=O)[C@H](CCCN=C(N)N)NC(=O)[C@H](Cc2ccc(O)cc2)NC(=O)[C@@H](NC(=O)[C@H](Cc2ccc3ccccc3c2)NC(=O)[C@H](CCCN=C(N)N)NC(=O)[C@@H](N)CCCN=C(N)N)CSSC[C@@H](C(=O)N[C@@H](CCCNC(N)=O)C(=O)O)NC(=O)[C@H](CCCNC(N)=O)NC(=O)[C@H](CCCN=C(N)N)NC(=O)[C@H](Cc2ccc(O)cc2)NC(=O)[C@@H]2CCCN2C(=O)[C@@H](CCCCN)NC1=O`, the CC50 [1] was over 40 µM, the CC50 [3] was 180 µM and the Ratio [2] was over 220. It also gave a Ratio [4] of 200.
`NCCCC[C@@H]1NC(=O)[C@H](CCCN=C(N)N)NC(=O)[C@H](Cc2ccc(O)cc2)NC(=O)[C@@H](NC(=O)[C@H](Cc2ccc3ccccc3c2)NC(=O)[C@H](CCCNC(N)=O)NC(=O)[C@@H](N)CCCN=C(N)N)CSSC[C@@H](C(=O)N[C@@H](CCCN=C(N)N)C(=O)O)NC(=O)[C@H](CCCNC(N)=O)NC(=O)[C@H](CCCN=C(N)N)NC(=O)[C@H](Cc2ccc(O)cc2)NC(=O)[C@@H]2CCCN2C(=O)[C@@H](CCCCN)NC1=O` showed a CC50 [1] of over 80 µM, a CC50 [3] of 260 µM and a Ratio [2] of over 180. It also gave a Ratio [4] of 570.
Compound `NCCCC[C@@H]1NC(=O)[C@H](CCCN=C(N)N)NC(=O)[C@H](Cc2ccc(O)cc2)NC(=O)[C@@H](NC(=O)[C@H](Cc2ccc3ccccc3c2)NC(=O)[C@H](CCCN=C(N)N)NC(=O)[C@@H](N)CCCNC(N)=O)CSSC[C@@H](C(=O)N[C@@H](CCCN=C(N)N)C(=O)O)NC(=O)[C@H](CCCNC(N)=O)NC(=O)[C@H](CCCN=C(N)N)NC(=O)[C@H](Cc2ccc(O)cc2)NC(=O)[C@@H]2CCCN2C(=O)[C@@H](CCCCN)NC1=O` has a CC50 [1] of over 80 µM, a CC50 [3] of 280 µM and a Ratio [2] of over 5300. The Ratio [4] was 18000.
With `NCCCC[C@H]1NC(=O)[C@H](CCCNC(N)=O)NC(=O)[C@H](CCCN=C(N)N)NC(=O)[C@H](Cc2ccc(O)cc2)NC(=O)[C@@H](NC(=O)[C@H](Cc2ccc3ccccc3c2)NC(=O)[C@H](CCCN=C(N)N)NC(=O)[C@@H](N)CCCN=C(N)N)CSSC[C@@H](C(=O)N[C@@H](CCCN=C(N)N)C(=O)O)NC(=O)[C@H](CCCNC(N)=O)NC(=O)[C@H](CCCN=C(N)N)NC(=O)[C@H](Cc2ccc(O)cc2)NC(=O)[C@@H]2CCCN2C1=O` the CC50 [1] was over 80 µM, the CC50 [3] was 270 µM and the Ratio [2] was over 5000. It also gave a Ratio [4] of over 16000.
`C[C@H](NC(=O)[C@@H](N)CCCN=C(N)N)C(=O)N[C@@H](Cc1ccc2ccccc2c1)C(=O)N[C@H]1CSSC[C@@H](C(=O)N[C@@H](CCCN=C(N)N)C(=O)O)NC(=O)[C@H](CCCNC(N)=O)NC(=O)[C@H](CCCN=C(N)N)NC(=O)[C@H](Cc2ccc(O)cc2)NC(=O)[C@@H]2CCCN2C(=O)[C@@H](CCCCN)NC(=O)[C@H](CCCCN)NC(=O)[C@H](CCCN=C(N)N)NC(=O)[C@H](Cc2ccc(O)cc2)NC1=O` gave a CC50 [1] of over 80 µM and a Ratio [2] of over 64.
In the case of `NCCCC[C@@H]1NC(=O)[C@H](CCCN=C(N)N)NC(=O)[C@H](Cc2ccc(O)cc2)NC(=O)[C@@H](NC(=O)[C@H](Cc2ccc3ccccc3c2)NC(=O)[C@H](CCCN=C(N)N)NC(=O)[C@@H](N)CCCN=C(N)N)CSSC[C@@H](C(=O)N[C@@H](CCCN=C(N)N)C(=O)O)NC(=O)[C@H](CCCNC(N)=O)NC(=O)[C@H](CCCN=C(N)N)NC(=O)[C@H](Cc2ccc(O)cc2)NC(=O)[C@@H]2CCCN2C(=O)[C@@H](CCCNC(N)=O)NC1=O`, the CC50 [1] is reported as over 80 µM, the CC50 [3] is reported as 280 µM and the Ratio [2] is reported as over 20000. The Ratio [4] was 69000.
In the case of `C[C@H](NC(=O)[C@@H]1CSSC[C@H](NC(=O)[C@H](Cc2ccc3ccccc3c2)NC(=O)[C@H](CCCN=C(N)N)NC(=O)[C@@H](N)CCCN=C(N)N)C(=O)N[C@@H](Cc2ccc(O)cc2)C(=O)N[C@@H](CCCN=C(N)N)C(=O)N[C@@H](CCCCN)C(=O)N[C@H](CCCCN)C(=O)N2CCC[C@H]2C(=O)N[C@@H](Cc2ccc(O)cc2)C(=O)N[C@@H](CCCN=C(N)N)C(=O)N[C@@H](CCCNC(N)=O)C(=O)N1)C(=O)O`, the CC50 [1] is reported as over 80 µM and the Ratio [2] is reported as over 210.
Compound `C[C@H](NC(=O)[C@H](CCCN=C(N)N)NC(=O)[C@@H](N)CCCN=C(N)N)C(=O)N[C@H]1CSSC[C@@H](C(=O)N[C@@H](CCCN=C(N)N)C(=O)O)NC(=O)[C@H](CCCNC(N)=O)NC(=O)[C@H](CCCN=C(N)N)NC(=O)[C@H](Cc2ccc(O)cc2)NC(=O)[C@@H]2CCCN2C(=O)[C@@H](CCCCN)NC(=O)[C@H](CCCCN)NC(=O)[C@H](CCCN=C(N)N)NC(=O)[C@H](Cc2ccc(O)cc2)NC1=O` has a CC50 [1] of over 80 µM and a Ratio [2] of over 34.

Source: ChEMBL document CHEMBL1132828, “Pharmacophore identification of a specific CXCR4 inhibitor, T140, leads to development of effective anti-HIV agents with very high selectivity indexes” (Bioorg Med Chem Lett, 2000)
